Legend:
[1] = test system: HS-PSS; assay: relative IC50 (inflection point of fitted dose-response curve, CellTox-Green cytotoxicity, 72 h; top asymptote may be below 50%); higher = less potent
In short: (§1)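 MPNST cell lines and primary human Schwann cells were grown for 72 h at 37 °C in 384-well plates containing five 10-fold compound dilutions. CellTox-Green, added before seeding at a final 1:1000 dilution, gave fluorescence from DNA released by disrupted cells, and signals were scaled to vehicle and positive-control wells. Curves were fitted with a four-parameter logistic model. Drug sensitivity score and relative IC50 come from these fits, with IC50 censored at the top concentration.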

[2] = test system: YST-1; assay: relative IC50 (inflection point of fitted dose-response curve, CellTiter-Glo viability, 72 h; top asymptote may be below 50% inhibition); higher = less potent
In short: (§2)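 Viability of MPNST cell lines and primary human Schwann cells was read as CellTiter-Glo ATP luminescence after 72 h at 37 °C, 5% CO2, in 384-well plates seeded with 750–1000 cells per well. Each compound had been preprinted at five concentrations in 10-fold steps. Signals were scaled between vehicle and positive-control wells, duplicates averaged where present, and fitted with four-parameter logistic curves. Drug sensitivity score and relative IC50 (censored at the top concentration) come from those fits, and percent inhibition is taken at the top concentration.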

[3] = test system: HS-PSS; assay: drug sensitivity score (DSS, CellTox-Green cytotoxicity, 72 h) (DSS (dimensionless)); higher = more cytotoxic; extreme values may be limits of the assay
In short: as §1

[4] = test system: HS-Sch-2; assay: drug sensitivity score (DSS, CellTiter-Glo viability, 72 h) (DSS (dimensionless)); higher = more sensitive; extreme values may be limits of the assay
In short: as §2

[5] = test system: HS-PSS; assay: as above
In short: as §2

[6] = test system: YST-1; assay: as above
In short: as §2

[7] = test system: HS-Sch-2; assay: % inhibition of CellTiter-Glo viability at highest tested concentration (72 h), relative to DMSO and benzethonium chloride controls; higher = more inhibition
In short: as §2

[8] = test system: HS-PSS; assay: as above
In short: as §2

[9] = test system: YST-1; assay: as above
In short: as §2

SMILES	relative IC50 [1]	relative IC50 [2]	drug sensitivity score [3]	drug sensitivity score [4]	drug sensitivity score [5]	drug sensitivity score [6]	% inhibition [7]	% inhibition [8]	% inhibition [9]
Cc1cccc(-c2[nH]c(CNc3ccccc3F)nc2-c2ccc3ncnn3c2)n1 [TEW-7197]	> 2500 nM	> 2500 nM	–	–	–	–	–	–	–
CN1CCN(C2CCN(C(=O)Nc3cc(Oc4ccc(NC(=O)C5(C(=O)Nc6ccc(F)cc6)CC5)c(F)c4)ccn3)CC2)CC1 [Golvatinib]	> 2500 nM	–	–	–	–	–	–	–	–
O=C(NC[C@H](O)CN1CCc2ccccc2C1)c1cc(NC2COC2)ncn1	> 10000 nM	–	–	–	–	–	–	–	–
Cn1cc(-c2ccc3nnc(C(F)(F)c4ccc5ncccc5c4)n3n2)cn1	> 10000 nM	–	–	–	–	–	–	–	–
C=CC(=O)Nc1cccc(Nc2nc(Nc3ccc(OCCOC)cc3)ncc2F)c1 [Spebrutinib]	> 1000 nM	–	–	–	–	–	–	–	–
C#Cc1cccc(Nc2ncnc3cc4c(cc23)OCCOCCOCCO4)c1 [Icotinib]	> 10000 nM	–	–	–	–	–	–	–	–
CC(C)Oc1cc(Nc2nc(N[C@@H](C)c3ccc(F)cn3)ncc2Cl)n[nH]1 [AZ-23]	–	162 nM	–	–	–	–	–	–	–
CCN1CCN(Cc2ccc(-c3cc4c(N[C@H](C)c5ccccc5)ncnc4[nH]3)cc2)CC1 [NVP-AEE788] (max concentration tested 2500 nM)	–	–	0	0	1.04	1.87	2.96%	22.7%	22.3%
Cn1nccc1Nc1nccc(-c2ccn([C@H](CO)c3ccc(Cl)c(F)c3)c(=O)c2)n1 [GDC-0994] (max concentration tested 10000 nM)	–	–	0	5.84	0	1.37	92.6%	8.18%	40%
Cc1nc(Nc2n[nH]c3c2CN(C(=O)N[C@H](CN(C)C)c2ccccc2)C3(C)C)c2sccc2n1 (max concentration tested 10000 nM)	–	–	10.6	15.4	27.9	24.2	101%	86.4%	101%
CC(C)Oc1cc(Nc2nc(N[C@@H](C)c3ccc(F)cn3)ncc2Cl)n[nH]1 [AZ-23] (max concentration tested 1000 nM)	–	–	0	1.29	0.29	1.96	21.1%	12.4%	26.5%
CC(C)c1cc(C(=O)N2Cc3ccc(CN4CCN(C)CC4)cc3C2)c(O)cc1O [Onalespib] (max concentration tested 2500 nM)	–	–	6.31	21.4	13.2	12.6	101%	81.9%	75.8%
C[C@@H]1CN(CC(=O)Nc2ccc3c(c2)Cc2cccc(-c4cc(=O)cc(N5CCOCC5)o4)c2S3)C[C@H](C)O1 (max concentration tested 25000 nM)	–	–	0	8.7	1.79	1.74	97.9%	45.7%	41.4%
CN(C[C@@H]1COCCO1)S(=O)(=O)Nc1ccc2ccc3ncc(-c4cnn(C)c4)cc3c(=O)c2c1 [MK-2461] (max concentration tested 10000 nM)	–	–	0	2.68	0.69	6.02	55.1%	25.5%	67.3%
COc1cc(N2CCN(C)CC2)ccc1Nc1nccc(-c2cn(C)c3cnccc23)n1 [AZ191] (max concentration tested 10000 nM)	–	–	1.42	5.07	5.3	3.96	95.6%	80.5%	76.4%
CNC(=O)c1ccc2cc([C@@]3(O)CCn4cncc43)ccc2c1 [Orteronel] (max concentration tested 10000 nM)	–	–	0	0	0	0	-4.34%	-7%	7.23%
C[C@@H](Oc1cc(-n2cnc3ccc(CN4CCN(C)CC4)cc32)sc1C(N)=O)c1ccccc1C(F)(F)F (max concentration tested 10000 nM)	–	–	5.06	34.6	14.6	27.3	99.8%	101%	86.8%

SMILES	relative IC50 [1]	relative IC50 [2]	drug sensitivity score [3]	drug sensitivity score [4]	drug sensitivity score [5]	drug sensitivity score [6]	% inhibition [7]	% inhibition [8]	% inhibition [9]
CNC(=O)c1ccc(-c2cnc3ncc(Cc4ccc5ncccc5c4)n3n2)cc1F [NVP-INC280] (max concentration tested 1000 nM)	–	–	0	1.29	0	0.19	6.7%	7.48%	12.3%
Cc1cc(Nc2ncc(Cl)c(Nc3ccccc3S(=O)(=O)C(C)C)n2)c(OC(C)C)cc1C1CCNCC1 [Ceritinib] (max concentration tested 2500 nM)	–	–	0.17	1.13	10.6	8.09	30.9%	64.5%	82.3%
Cc1[nH]c(/C=C2\C(=O)Nc3ccccc32)c(C)c1CCC(=O)O [Orantinib] (max concentration tested 10000 nM)	–	–	20.3	0	0.29	0.72	0.75%	15%	20%
Clc1ccccc1C(c1ccccc1)(c1ccccc1)n1cccn1 [TRAM-34] (max concentration tested 1000 nM)	–	–	0	0.38	0.59	0	15.5%	13.4%	3.42%
N#CC1(c2ccc(NC(=O)c3cccnc3NCc3ccncc3)cc2)CCCC1 [Apatinib] (max concentration tested 10000 nM)	–	–	0	0	0	1.19	-2.67%	11.6%	18.9%
C[C@@H](Nc1cc(F)cc(F)c1)c1cc(C(=O)N(C)C)cc2c(=O)cc(N3CCOCC3)oc12 [AZD-8186] (max concentration tested 1000 nM)	–	–	0	0	0	1.06	-0.99%	-3.47%	28.9%
c1cc(CN2CCCNCCNCCCNCC2)ccc1CN1CCCNCCNCCCNCC1 [Plerixafor] (max concentration tested 10000 nM)	–	–	0	0	0.55	0	5.96%	14.2%	-8.03%
O=C(/C=C\n1cnc(-c2cc(C(F)(F)F)cc(C(F)(F)F)c2)n1)NNc1cnccn1 [Selinexor] (max concentration tested 10000 nM)	–	–	1.86	19.8	11.3	21.4	101%	72.3%	95.3%
Cc1sc2c(c1C)C(c1ccc(Cl)cc1)=N[C@@H](CC(=O)Nc1ccc(O)cc1)c1nnc(C)n1-2 [OTX015] (max concentration tested 10000 nM)	–	–	0	14.6	10.7	14.5	75.4%	59.5%	69.2%
CC[C@H](C)C(=O)O[C@H]1C[C@@H](C)C=C2C=C[C@H](C)[C@H](CC[C@@H]3C[C@@H](O)CC(=O)O3)[C@H]21 [Lovastatin] (max concentration tested 10000 nM)	–	–	0	0	0	0	-6.45%	-5.9%	0.71%
CCS(=O)(=O)N1CC(CC#N)(n2cc(-c3ncnc4[nH]ccc34)cn2)C1 [Baricitinib] (max concentration tested 2500 nM)	–	–	0	0	0	0	4.94%	1.87%	-0.02%
O=C(NC[C@H](O)CN1CCc2ccccc2C1)c1cc(NC2COC2)ncn1 (max concentration tested 10000 nM)	–	–	0	0.29	0.24	0.06	10.7%	17.6%	14.1%
COc1ncc(-c2ccc3nccc(-c4ccnnc4)c3c2)cc1NS(=O)(=O)c1ccc(F)cc1F [Omipalisib] (max concentration tested 1000 nM)	–	–	0	9.45	10.6	23.6	83.8%	64.3%	94%
COc1cc(Nc2ncc(F)c(Nc3ccc4c(n3)N(COP(=O)(O)O)C(=O)C(C)(C)O4)n2)cc(OC)c1OC [Fostamatinib] (max concentration tested 2500 nM)	–	–	0	2.96	2.95	4.22	36%	40.4%	67.3%
CC(C)[C@H]1C(=O)N[C@@H](CCCNC(=N)N)C(=O)NCC(=O)N[C@@H](CC(=O)O)C(=O)N[C@H](Cc2ccccc2)C(=O)N1C [Cilengitide] (max concentration tested 10000 nM)	–	–	0	1.06	0	0	27%	1.31%	-3.66%
CC(=O)NCC(=O)N1[C@@H]2CC[C@H]1c1ccc(Nc3ncc(C(F)(F)F)c(NC4CCC4)n3)cc12 (max concentration tested 10000 nM)	–	–	1.86	11.5	9.91	10.5	99.3%	87.8%	82.8%
